Data from US20220226392A1, “COMPOSITIONS AND PROCESS FOR INTEGRATING CELLS INTO EPITHELIUM” (Medizinische Hochschule Hannover, priority 2019, published 2022).

Legend:
[1] = test system: human primary venous endothelial cells; experiment: Loosening and regeneration of a confluent endothelial cell monolayer after contact with 17β-estradiol (phase contrast, anti-VE-cadherin and DAPI staining); type: cell-based
Experimental: As an example for an endothelium, human primary venous endothelial cells were cultivated in EGM-medium under cell culture conditions until reaching confluence. Then, the medium was removed from this exemplary epithelium and replaced by fresh EGM-medium containing 17β-estradiol in a concentration of 1 μM, 10 μM, 30 μM, 100 μM, or 300 μM. The concentrations of 17β-estradiol are also indicated in the rows of FIG. 1. […] Subsequent to the presence of the 17β-estradiol in medium, this first composition was removed and replaced by EGM-medium without added 17β-estradiol, with subsequent incubation for 4 h under cell culture conditions. The result is depicted in FIG. 1 in column C in phase contrast, and in column D after immunological staining for VE-cadherin as an essential component of adherens junctions between cells, and DAPI staining for nuclei.

[2] = test system: human primary venous endothelial cells; experiment: Integration of suspended eGFP-expressing iPSC-derived endothelial cells into an endothelial cell layer pre-treated with 17β-estradiol; type: cell-based
Experimental: A confluent layer of human primary venous endothelial cells cultivated in EGM-medium was used as a representative for endothelium. This endothelial cell layer was contacted with a first composition containing 17β-estradiol in a concentration yielding 100 μM 17β-estradiol in fresh cell culture medium. After incubating this endothelial cell layer under cell culture conditions for 30 min in the presence of 100 μM 17β-estradiol, the medium was removed and replaced by a suspension of iPSC-derived endothelial cells that were genetically manipulated to constitutively express enhanced green fluorescent green protein (eGFP) in EGM-medium without added 17β-estradiol.

[3] = test system: human umbilical vein endothelial cells; settings: 10 nM 17β-estradiol; cited from earlier work
[4] = test system: uterine human microvascular endothelial cells; settings: 10 nM 17β-estradiol; cited from earlier work

C[C@]12CC[C@@H]3c4ccc(O)cc4CC[C@H]3[C@@H]1CC[C@@H]2O [17β-estradiol]
concentration at which the endothelial layer was loosened, respectively shows disintegration ([1]; 30 min in EGM-medium, tested 1, 10, 30, 100, 300 μM, FIG. 1 columns A, B): at least 10 μM | state of the endothelial layer after removal of 17β-estradiol ([1]; 4 h incubation in EGM-medium without 17β-estradiol after 30 min exposure, VE-cadherin and DAPI staining, FIG. 1 columns C, D): a closed layer of the endothelial cells is re-established | integration of eGFP-labelled endothelial cells of the suspension into the endothelial layer ([2]; 100 μM 17β-estradiol for 30 min, then 4 h incubation with cell suspension without 17β-estradiol, FIG. 2 column B): efficiently integrate between the original endothelial cells | effect on endothelial cell layer and VE-cadherin expression ([2]; 100 μM 17β-estradiol, 30 min, FIG. 2 column A): loosening of the cell layer and loss of VE-cadherin expression | permeability for FITC-labelled dextran of monolayer [3]: increases the permeability | permeability for FITC-labelled dextran of monolayer [4]: increases the permeability
